# Reference: paper PMC12187869, “Transport of the uremic toxin symmetric dimethylarginine (SDMA) by renal transport proteins” (Amino Acids, 2025)
# Assays:
# Format in all cases: cell-based
# MATE1 = molecular target: T1, MATE1 (Homo sapiens, UniProt Q96FL8); test: [3H]SDMA uptake kinetics (Km) in HEK-MATE1 cells; details: read-out: Km in μM
# T1 construct: gene SLC47A1; HEK293 cells stably expressing human MATE1
# T1 sequence (Q96FL8 1-570): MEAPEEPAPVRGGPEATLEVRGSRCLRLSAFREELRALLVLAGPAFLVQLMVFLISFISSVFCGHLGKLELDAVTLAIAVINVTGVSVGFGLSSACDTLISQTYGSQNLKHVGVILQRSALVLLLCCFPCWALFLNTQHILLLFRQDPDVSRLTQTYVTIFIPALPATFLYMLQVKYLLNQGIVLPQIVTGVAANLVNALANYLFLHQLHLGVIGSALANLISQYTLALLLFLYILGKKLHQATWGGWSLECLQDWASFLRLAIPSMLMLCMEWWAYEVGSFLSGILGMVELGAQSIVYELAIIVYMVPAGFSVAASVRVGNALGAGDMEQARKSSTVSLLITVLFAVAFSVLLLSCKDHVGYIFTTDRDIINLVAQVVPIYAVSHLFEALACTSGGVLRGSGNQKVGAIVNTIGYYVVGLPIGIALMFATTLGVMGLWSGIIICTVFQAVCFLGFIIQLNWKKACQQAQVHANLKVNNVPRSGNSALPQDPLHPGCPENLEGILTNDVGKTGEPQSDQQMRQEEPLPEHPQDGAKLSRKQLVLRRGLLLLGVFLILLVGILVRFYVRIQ
# OCT2 = molecular target: T2, OCT2 (Homo sapiens, UniProt O15244); test: [3H]SDMA uptake in HEK-OCT2 cells; no saturation up to […]
# T2 construct: gene SLC22A2; HEK293 cells stably expressing human OCT2
# T2 sequence (O15244 1-555): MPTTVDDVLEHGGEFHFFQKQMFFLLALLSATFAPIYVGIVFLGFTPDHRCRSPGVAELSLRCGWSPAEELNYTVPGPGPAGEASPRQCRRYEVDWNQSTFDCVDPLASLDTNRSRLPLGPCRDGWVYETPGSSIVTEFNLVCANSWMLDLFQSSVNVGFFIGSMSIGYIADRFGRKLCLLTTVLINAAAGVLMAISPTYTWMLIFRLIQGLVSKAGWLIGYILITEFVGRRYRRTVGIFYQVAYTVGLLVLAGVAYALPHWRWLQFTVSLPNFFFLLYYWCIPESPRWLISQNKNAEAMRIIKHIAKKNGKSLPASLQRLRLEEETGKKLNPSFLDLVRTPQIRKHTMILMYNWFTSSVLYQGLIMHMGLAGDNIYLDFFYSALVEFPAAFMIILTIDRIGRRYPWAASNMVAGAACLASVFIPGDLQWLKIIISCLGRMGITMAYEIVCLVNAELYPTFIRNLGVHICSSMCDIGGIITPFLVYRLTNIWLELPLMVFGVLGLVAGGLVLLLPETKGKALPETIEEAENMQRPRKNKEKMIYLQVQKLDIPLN
# OATP4C1 [1] = molecular target: T3, OATP4C1 (Homo sapiens, UniProt Q6ZQN7); test: inhibition of [3H]SDMA uptake in HEK-OATP4C1 cells at […]
# T3 construct: gene SLCO4C1; HEK293 cells stably expressing human OATP4C1
# T3 sequence (Q6ZQN7 1-724): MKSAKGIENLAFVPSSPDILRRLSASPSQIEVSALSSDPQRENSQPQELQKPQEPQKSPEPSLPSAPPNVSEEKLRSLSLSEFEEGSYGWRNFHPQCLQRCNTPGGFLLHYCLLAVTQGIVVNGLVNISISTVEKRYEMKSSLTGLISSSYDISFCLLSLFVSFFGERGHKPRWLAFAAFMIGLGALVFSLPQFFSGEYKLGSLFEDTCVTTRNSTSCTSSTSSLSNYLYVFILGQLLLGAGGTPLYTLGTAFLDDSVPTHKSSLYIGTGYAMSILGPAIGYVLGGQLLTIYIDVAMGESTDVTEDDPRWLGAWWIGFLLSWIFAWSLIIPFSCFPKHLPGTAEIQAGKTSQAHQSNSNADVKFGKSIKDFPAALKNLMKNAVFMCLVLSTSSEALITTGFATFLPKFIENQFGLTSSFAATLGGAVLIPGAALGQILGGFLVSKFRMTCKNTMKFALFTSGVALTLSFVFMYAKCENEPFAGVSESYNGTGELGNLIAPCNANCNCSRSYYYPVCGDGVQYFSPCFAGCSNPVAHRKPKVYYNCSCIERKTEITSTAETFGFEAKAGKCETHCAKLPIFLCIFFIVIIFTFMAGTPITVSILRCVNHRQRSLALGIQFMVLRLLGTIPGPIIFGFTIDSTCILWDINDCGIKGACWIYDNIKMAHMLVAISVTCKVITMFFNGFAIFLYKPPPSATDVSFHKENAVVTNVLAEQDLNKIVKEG
# CAT1 [2] = molecular target: T4, CAT1 (Homo sapiens, UniProt P30825); test: inhibition of [3H]SDMA uptake in HEK-CAT1 cells at […]
# T4 construct: gene SLC7A1; HEK293 cells stably expressing human CAT1
# T4 sequence (P30825 whole entry): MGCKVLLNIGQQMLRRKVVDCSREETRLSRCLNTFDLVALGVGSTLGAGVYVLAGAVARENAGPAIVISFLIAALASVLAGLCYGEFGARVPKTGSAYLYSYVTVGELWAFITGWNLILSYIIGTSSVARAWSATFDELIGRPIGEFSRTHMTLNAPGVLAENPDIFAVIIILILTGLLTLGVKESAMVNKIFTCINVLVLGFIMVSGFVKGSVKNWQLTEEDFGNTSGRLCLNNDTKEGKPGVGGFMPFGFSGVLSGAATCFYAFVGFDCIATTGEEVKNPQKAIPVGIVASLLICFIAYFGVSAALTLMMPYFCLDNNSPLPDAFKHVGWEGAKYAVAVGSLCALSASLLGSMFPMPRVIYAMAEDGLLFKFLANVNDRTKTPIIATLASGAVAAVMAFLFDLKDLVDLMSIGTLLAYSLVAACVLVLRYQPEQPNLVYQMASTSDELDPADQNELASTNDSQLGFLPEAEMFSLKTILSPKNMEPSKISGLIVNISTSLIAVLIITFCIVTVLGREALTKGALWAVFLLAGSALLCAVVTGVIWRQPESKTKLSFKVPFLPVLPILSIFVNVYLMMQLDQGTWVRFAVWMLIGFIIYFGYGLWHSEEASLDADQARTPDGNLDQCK
# OATP4C1 [3] = molecular target: T3, OATP4C1; test: inhibition of [3H]SDMA uptake in HEK-OATP4C1 cells
# CAT1 [4] = molecular target: T4, CAT1; test: inhibition of [3H]SDMA uptake in HEK-CAT1 cells
smiles,measurement,setting,value
CN=C(NC)NCCC[C@H](N)C(=O)O [symmetric dimethylarginine],Km,MATE1,1970 µM
same,[3H]SDMA uptake in HEK-OCT2 cells; no saturation up to 4 000 μM,OCT2,"significant uptake was observed for CAT1-, OATP4C1-, OCT2-, and MATE1-mediated transport"
N=C(N)NCCCC[C@H](N)C(=O)O [L-homoarginine],inhibition of [3H]SDMA uptake in HEK-OATP4C1 cells at 50 and 500 μM,OATP4C1 [1],"all influenced SDMA transport, thereby competing with SDMA for CAT1- or OATP4C1-mediated uptake"
CN(C)C(=N)NCCC[C@H](N)C(=O)O [ADMA],inhibition of [3H]SDMA uptake in HEK-CAT1 cells at 50 and 500 μM,CAT1 [2],"all influenced SDMA transport, thereby competing with SDMA for CAT1- or OATP4C1-mediated uptake"
N=C(N)NCCC[C@H](N)C(=O)O [L-arginine],IC50,OATP4C1 [3],28.8 µM
same,IC50,CAT1 [4],280 µM
